Active and inactive are the calls of the source. No cut-off for these calls is given here.
Key:
[1] = Stability in human serum assessed as full-length compound remaining after 10 mins by anion-exchange HPLC; type: ADME, cell-free; details: read-out: Stability
[2] = target: T1, Toll-like receptor 8 (Homo sapiens) (UniProt Q9NR97); experiment: Agonist activity at human TLR8 expressed in HEK293XL cells assessed as NF-kappaB activation after 18 hrs; type: functional, cell-based
T1 sequence (whole entry): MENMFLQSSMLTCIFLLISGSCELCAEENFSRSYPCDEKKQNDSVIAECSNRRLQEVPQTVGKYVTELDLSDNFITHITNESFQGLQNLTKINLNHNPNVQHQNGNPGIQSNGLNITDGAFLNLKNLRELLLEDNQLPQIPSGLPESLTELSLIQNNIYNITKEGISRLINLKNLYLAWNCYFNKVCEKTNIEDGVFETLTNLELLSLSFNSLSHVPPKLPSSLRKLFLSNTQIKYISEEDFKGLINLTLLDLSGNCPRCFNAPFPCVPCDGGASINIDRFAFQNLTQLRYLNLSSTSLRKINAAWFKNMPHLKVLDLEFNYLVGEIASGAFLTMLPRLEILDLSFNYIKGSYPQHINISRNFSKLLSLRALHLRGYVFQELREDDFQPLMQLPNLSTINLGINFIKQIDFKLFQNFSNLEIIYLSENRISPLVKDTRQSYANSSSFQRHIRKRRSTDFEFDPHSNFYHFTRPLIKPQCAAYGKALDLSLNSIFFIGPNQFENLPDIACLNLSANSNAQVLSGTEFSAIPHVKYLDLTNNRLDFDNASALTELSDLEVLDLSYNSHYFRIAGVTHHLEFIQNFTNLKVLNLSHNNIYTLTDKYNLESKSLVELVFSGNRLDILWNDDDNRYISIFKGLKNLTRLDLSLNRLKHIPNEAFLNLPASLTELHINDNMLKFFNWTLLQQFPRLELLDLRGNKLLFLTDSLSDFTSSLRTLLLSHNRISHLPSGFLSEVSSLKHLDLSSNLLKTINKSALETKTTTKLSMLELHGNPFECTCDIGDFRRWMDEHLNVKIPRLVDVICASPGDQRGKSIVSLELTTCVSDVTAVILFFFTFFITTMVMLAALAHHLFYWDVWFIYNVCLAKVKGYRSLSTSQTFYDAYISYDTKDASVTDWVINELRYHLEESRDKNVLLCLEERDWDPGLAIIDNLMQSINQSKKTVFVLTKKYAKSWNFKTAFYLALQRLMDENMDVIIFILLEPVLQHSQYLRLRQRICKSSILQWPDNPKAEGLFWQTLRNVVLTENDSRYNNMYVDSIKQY

[3] = target: T2, Toll-like receptor 7 (Homo sapiens) (UniProt Q9NYK1); experiment: Agonist activity at human TLR7 expressed in HEK293XL cells assessed as NF-kappaB activation after 18 hrs; type: functional, cell-based
T2 sequence (whole entry): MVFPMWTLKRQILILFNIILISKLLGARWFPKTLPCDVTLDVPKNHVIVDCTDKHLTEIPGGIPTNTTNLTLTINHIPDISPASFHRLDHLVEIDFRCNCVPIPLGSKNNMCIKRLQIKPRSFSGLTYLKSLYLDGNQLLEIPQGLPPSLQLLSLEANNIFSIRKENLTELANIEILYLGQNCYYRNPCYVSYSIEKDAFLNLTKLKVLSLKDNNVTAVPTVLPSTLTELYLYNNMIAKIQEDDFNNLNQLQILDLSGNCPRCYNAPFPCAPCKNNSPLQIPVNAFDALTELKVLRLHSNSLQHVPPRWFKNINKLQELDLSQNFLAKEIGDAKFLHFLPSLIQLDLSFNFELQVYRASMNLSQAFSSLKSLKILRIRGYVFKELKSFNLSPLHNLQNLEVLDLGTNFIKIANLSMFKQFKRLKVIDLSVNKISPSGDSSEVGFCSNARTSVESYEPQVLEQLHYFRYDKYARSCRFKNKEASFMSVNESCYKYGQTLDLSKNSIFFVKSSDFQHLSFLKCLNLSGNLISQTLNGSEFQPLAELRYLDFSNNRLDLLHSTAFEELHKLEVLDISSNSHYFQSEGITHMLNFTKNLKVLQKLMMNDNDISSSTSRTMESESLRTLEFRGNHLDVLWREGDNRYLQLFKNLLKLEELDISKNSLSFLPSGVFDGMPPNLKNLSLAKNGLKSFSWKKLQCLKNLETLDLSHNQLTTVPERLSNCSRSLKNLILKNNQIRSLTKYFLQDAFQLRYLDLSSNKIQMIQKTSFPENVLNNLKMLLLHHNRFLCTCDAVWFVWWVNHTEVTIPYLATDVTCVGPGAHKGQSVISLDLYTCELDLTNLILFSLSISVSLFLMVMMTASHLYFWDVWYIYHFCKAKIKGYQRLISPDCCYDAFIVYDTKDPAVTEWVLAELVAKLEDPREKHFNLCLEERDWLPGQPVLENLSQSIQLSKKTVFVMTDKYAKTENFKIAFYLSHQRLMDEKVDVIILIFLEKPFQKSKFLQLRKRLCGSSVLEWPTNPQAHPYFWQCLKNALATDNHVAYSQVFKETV

PBMC [4] = experiment: Stimulation of immune response in human PBMC assessed as induction of IL1-beta production at 150 ug/ml after 24 hrs; type: functional, cell-based
PBMC [5] = experiment: Stimulation of immune response in human PBMC assessed as induction of IL2R level at 150 ug/ml after 24 hrs; type: functional, cell-based
PBMC [6] = experiment: Stimulation of immune response in human PBMC assessed as induction of IL8 production at 150 ug/ml after 24 hrs; type: functional, cell-based
PBMC [7] = experiment: Stimulation of immune response in human PBMC assessed as induction of IL10 production at 150 ug/ml after 24 hrs; type: functional, cell-based
PBMC [8] = experiment: Stimulation of immune response in human PBMC assessed as induction of IL12 production at 150 ug/ml after 24 hrs; type: functional, cell-based
PBMC [9] = experiment: Stimulation of immune response in human PBMC assessed as induction of IFNalpha production at 150 ug/ml after 24 hrs; type: functional, cell-based
PBMC [10] = experiment: Stimulation of immune response in human PBMC assessed as induction of IFN-gamma production at 150 ug/ml after 24 hrs; type: functional, cell-based
PBMC [11] = experiment: Stimulation of immune response in human PBMC assessed as induction of MCP1 production at 150 ug/ml after 24 hrs; type: functional, cell-based
PBMC [12] = experiment: Stimulation of immune response in human PBMC assessed as induction of RANTES production at 150 ug/ml after 24 hrs; type: functional, cell-based
PBMC [13] = experiment: Stimulation of immune response in human PBMC assessed as induction of MIP1alpha production at 150 ug/ml after 24 hrs; type: functional, cell-based
PBMC [14] = experiment: Stimulation of immune response in human PBMC assessed as induction of MIP1beta production at 150 ug/ml after 24 hrs; type: functional, cell-based
PBMC [15] = experiment: Stimulation of immune response in human PBMC assessed as induction of TNFalpha production at 150 ug/ml after 24 hrs; type: functional, cell-based
Homo sapiens [16] = species: Homo sapiens; experiment: Stimulation of immune response in human pDC assessed as induction of IFN-gamma production at 150 ug/ml after 24 hrs; type: functional
Homo sapiens [17] = species: Homo sapiens; experiment: Stimulation of immune response in human pDC assessed as induction of IFNalpha production at 150 ug/ml after 24 hrs; type: functional
Homo sapiens [18] = species: Homo sapiens; experiment: Stimulation of immune response in human pDC assessed as induction of IL12 production at 150 ug/ml after 24 hrs; type: functional
Homo sapiens [19] = species: Homo sapiens; experiment: Stimulation of immune response in human pDC assessed as induction of TNFalpha production at 150 ug/ml after 24 hrs; type: functional
Homo sapiens [20] = species: Homo sapiens; experiment: Stimulation of immune response in human pDC assessed as induction of MIP1alpha production at 150 ug/ml after 24 hrs; type: functional
Homo sapiens [21] = species: Homo sapiens; experiment: Stimulation of immune response in human pDC assessed as induction of MIP1beta production at 150 ug/ml after 24 hrs; type: functional
Mus musculus = experiment: Stimulation of immune response in C57BL/6 mouse assessed as induction of serum IL12 production at 50 mg/kg, sc after 2 hrs by luminex multiplex assay; type: functional, organism-based; design: dose 50 mg/kg

remaining at 10 min [1]: 75%
Activity [2]: Dose-dependent effect
Activity [3]: inactive
SMILES: Nc1ccn([C@@H]2O[C@H](COP(O)(=S)O[C@H]3[C@@H](O)[C@H](n4cnc5c(=O)[nH]c(N)nc54)O[C@@H]3COP(O)(=S)O[C@H]3[C@@H](O)[C@H](n4ccc(=O)[nH]c4=O)O[C@@H]3CO)[C@@H](OP(O)(=S)OC[C@H]3O[C@@H](n4ccc(=O)[nH]c4=O)[C@H](O)[C@@H]3OP(O)(=S)OC[C@H]3O[C@@H](n4cnc5c(=O)[nH]c(N)nc54)[C@H](O)[C@@H]3OP(O)(=S)OC[C@H]3O[C@@H](n4ccc(N)nc4=O)[C@H](O)[C@@H]3OP(O)(=S)OC[C@H]3O[C@@H](n4ccc(=O)[nH]c4=O)[C@H](O)[C@@H]3OP(O)(=S)OC[C@H]3O[C@@H](n4ccc(=O)[nH]c4=O)[C@H](O)[C@@H]3OP(O)(=S)OC[C@H]3O[C@@H](n4cnc5c(=O)[nH]c(N)nc54)[C@H](O)[C@@H]3OP(O)(=S)OC[C@H]3O[C@@H](n4ccc(=O)[nH]c4=O)[C@H](O)[C@@H]3OP(O)(=S)OC[C@H]3O[C@@H](n4cnc5c(=O)[nH]c(N)nc54)[C@H](O)[C@@H]3OP(O)(=S)OCC(O)COP(O)(=S)O[C@H]3[C@@H](O)[C@H](n4cnc5c(=O)[nH]c(N)nc54)O[C@@H]3COP(O)(=S)O[C@H]3[C@@H](O)[C@H](n4ccc(=O)[nH]c4=O)O[C@@H]3COP(O)(=S)O[C@H]3[C@@H](O)[C@H](n4cnc5c(=O)[nH]c(N)nc54)O[C@@H]3COP(O)(=S)O[C@H]3[C@@H](O)[C@H](n4ccc(=O)[nH]c4=O)O[C@@H]3COP(O)(=S)O[C@H]3[C@@H](O)[C@H](n4ccc(=O)[nH]c4=O)O[C@@H]3COP(O)(=S)O[C@H]3[C@@H](O)[C@H](n4ccc(N)nc4=O)O[C@@H]3COP(O)(=S)O[C@H]3[C@@H](O)[C@H](n4cnc5c(=O)[nH]c(N)nc54)O[C@@H]3COP(O)(=S)O[C@H]3[C@@H](O)[C@H](n4ccc(=O)[nH]c4=O)O[C@@H]3COP(O)(=S)O[C@H]3[C@@H](O)[C@H](n4ccc(N)nc4=O)O[C@@H]3COP(O)(=S)O[C@H]3[C@@H](O)[C@H](n4cnc5c(=O)[nH]c(N)nc54)O[C@@H]3COP(O)(=S)O[C@H]3[C@@H](O)[C@H](n4ccc(=O)[nH]c4=O)O[C@@H]3CO)[C@H]2O)c(=O)n1 (some centres not stated)
Activity (PBMC [4]): Active
Activity (PBMC [5]): Active
Activity (PBMC [6]): Active
Activity (PBMC [7]): Active
Activity (PBMC [8]): Active
Activity (PBMC [9]): Active
Activity (PBMC [10]): Active
Activity (PBMC [11]): Active
Activity (PBMC [12]): Active
Activity (PBMC [13]): Active
Activity (PBMC [14]): Active
Activity (PBMC [15]): Active
Activity (Homo sapiens [16]): Active
Activity (Homo sapiens [17]): inactive
Activity (Homo sapiens [18]): Active
Activity (Homo sapiens [19]): Active
Activity (Homo sapiens [20]): Active
Activity (Homo sapiens [21]): Active
Activity (Mus musculus): inactive
